Experimental data taken from patent US20180201650A1 (BGI SHENZHEN, priority 2014, published 2018).

Test system: HVA calcium channel
Type: cell-based, rat

With `COC(=O)C1=C(C)NC(C)=C(C(=O)OC)C1c1ccccc1[N+](=O)[O-]` [Nifedipine, reference compound] the “current after loading (pA)” value was −734.31 pA, the “current before loading (pA)” value was −1471.35 pA and the “inhibition rate (%)” value (10 μM) was 50.09%.
